From ChEMBL document CHEMBL2401671, “Nucleic acid changes during photodynamic inactivation of bacteria by cationic porphyrins” (Bioorg Med Chem, 2013)
Calls of active or inactive are those of the source. No cut-off for these calls is given here.

Experiments:
[1] = tested on: Escherichia coli; assay: Photodynamic inactivation of Escherichia coli ATCC 25922 assessed as reduction in genomic DNA level at 5 uM preincubated for 10 mins followed by visible light irradiation for 15 mins by agarose gel electrophoresis; type: functional, organism-based
[2] = tested on: Escherichia coli; assay: Photodynamic inactivation of Escherichia coli ATCC 25922 assessed as reduction in intracellular double stranded DNA concentration at 5 uM preincubated for 10 mins followed by visible light irradiation by fluorimetric analysis; type: functional, organism-based; settings: TDE = time-dependent effect
[3] = tested on: Escherichia coli; assay: Photodynamic inactivation of Escherichia coli ATCC 25922 assessed as reduction in rRNA level at 5 uM preincubated for 10 mins followed by visible light irradiation for 15 mins by agarose gel electrophoresis; type: functional, organism-based
[4] = tested on: Escherichia coli; assay: Photodynamic inactivation of Escherichia coli ATCC 25922 assessed as reduction in nucleic acid level at 5 uM preincubated for 10 mins followed by visible light irradiation for 60 mins by agarose gel electrophoresis; type: functional, organism-based
[5] = tested on: Staphylococcus warneri; assay: Photodynamic inactivation of Staphylococcus warneri assessed as reduction in DNA level at 0.5 uM preincubated for 10 mins followed by visible light irradiation for 5 to 30 mins by agarose gel electrophoresis; type: functional, organism-based
[6] = tested on: Staphylococcus warneri; assay: Photodynamic inactivation of Staphylococcus warneri assessed as reduction in DNA level at 0.5 uM preincubated for 10 mins followed by visible light irradiation for 40 mins by agarose gel electrophoresis; type: functional, organism-based
[7] = tested on: Escherichia coli; assay: Photodynamic inactivation of Escherichia coli ATCC 25922 assessed as reduction in 23S rRNA level at 5 uM preincubated for 10 mins followed by visible light irradiation for 30 mins by agarose gel electrophoresis; type: functional, organism-based
[8] = tested on: Escherichia coli; assay: Photodynamic inactivation of Escherichia coli ATCC 25922 assessed as reduction in 16S rRNA level at 5 uM preincubated for 10 mins followed by visible light irradiation for 30 mins by agarose gel electrophoresis; type: functional, organism-based
[9] = tested on: Escherichia coli; assay: Photodynamic inactivation of Escherichia coli ATCC 25922 assessed as reduction in intracellular double stranded DNA concentration at 5 uM preincubated for 10 mins followed by visible light irradiation for 180 mins by fluorimetric analysis relative to control; type: functional; parameters: scale not given: the % may be the effect or the level left
[10] = tested on: Staphylococcus warneri; assay: Drug uptake in Staphylococcus warneri at 0.5 uM after 10 mins by spectrofluorimetric analysis; type: ADME, organism-based; settings: in vivo
[11] = tested on: Staphylococcus warneri; assay: Photodynamic inactivation of Staphylococcus warneri assessed as reduction in intracellular double stranded DNA concentration at 0.5 uM preincubated for 10 mins followed by visible light irradiation for 15 mins by fluorimetric analysis relative to control; type: functional; parameters: scale not given: the % may be the effect or the level left
[12] = tested on: Escherichia coli; assay: Photodynamic inactivation of Escherichia coli ATCC 25922 assessed as reduction in cell survival at 5 uM preincubated for 10 mins followed by visible light irradiation for 30 mins; type: functional
[13] = tested on: Staphylococcus warneri; assay: Photodynamic inactivation of Staphylococcus warneri assessed as reduction in intracellular double stranded DNA concentration at 0.5 uM preincubated for 10 mins followed by visible light irradiation for 40 mins by fluorimetric analysis relative to control; type: functional; parameters: scale not given: the % may be the effect or the level left
[14] = tested on: Staphylococcus warneri; assay: Photodynamic inactivation of Staphylococcus warneri assessed as reduction in cell survival at 0.5 uM preincubated for 10 mins followed by visible light irradiation at 5 J cm'-2 light dose; type: functional
[15] = tested on: Escherichia coli; assay: Photodynamic inactivation of Escherichia coli ATCC 25922 assessed as reduction in intracellular double stranded DNA concentration at 5 uM preincubated for 10 mins followed by visible light irradiation for 30 mins by fluorimetric analysis relative to control; type: functional; parameters: scale not given: the % may be the effect or the level left
[16] = tested on: Escherichia coli; assay: Photodynamic inactivation of Escherichia coli ATCC 25922 assessed as reduction in intracellular double stranded DNA concentration at 5 uM preincubated for 10 mins followed by visible light irradiation for 270 mins by fluorimetric analysis relative to control; type: functional; parameters: scale not given: the % may be the effect or the level left
[17] = tested on: Staphylococcus warneri; assay: Photodynamic inactivation of Staphylococcus warneri assessed as reduction in cell survival at 0.5 uM preincubated for 10 mins followed by visible light irradiation for 40 mins; type: functional
[18] = tested on: Staphylococcus warneri; assay: Photodynamic inactivation of Staphylococcus warneri assessed as reduction in cell survival at 0.5 uM preincubated for 10 mins followed by visible light irradiation for 5 mins; type: functional
[19] = tested on: Escherichia coli; assay: Photodynamic inactivation of Escherichia coli ATCC 25922 assessed as reduction in cell survival at 5 uM preincubated for 10 mins followed by visible light irradiation at 8 J cm'-2 light dose; type: functional
[20] = tested on: Staphylococcus warneri; assay: Photodynamic inactivation of Staphylococcus warneri assessed as reduction in intracellular double stranded DNA concentration at 0.5 uM preincubated for 10 mins followed by visible light irradiation for 10 mins by fluorimetric analysis relative to control; type: functional; parameters: scale not given: the % may be the effect or the level left
[21] = tested on: Escherichia coli; assay: Photodynamic inactivation of Escherichia coli ATCC 25922 assessed as reduction in cell survival at 5 uM preincubated for 10 mins followed by visible light irradiation for 90 mins; type: functional
[22] = tested on: Escherichia coli; assay: Photodynamic inactivation of Escherichia coli ATCC 25922 assessed as reduction in intracellular double stranded DNA concentration at 5 uM preincubated for 10 mins followed by visible light irradiation for 60 mins by fluorimetric analysis relative to control; type: functional; parameters: scale not given: the % may be the effect or the level left
[23] = tested on: Escherichia coli; assay: Drug uptake in Escherichia coli ATCC 25922 at 5 uM after 10 mins by spectrofluorimetric analysis; type: ADME, organism-based; settings: in vivo
[24] = tested on: Staphylococcus warneri; assay: Photodynamic inactivation of Staphylococcus warneri assessed as reduction in cell survival at 0.5 uM preincubated for 10 mins followed by visible light irradiation for 30 mins; type: functional
[25] = tested on: Staphylococcus warneri; assay: Photodynamic inactivation of Staphylococcus warneri assessed as reduction in intracellular double stranded DNA concentration at 0.5 uM preincubated for 10 mins followed by visible light irradiation for 30 mins by fluorimetric analysis relative to control; type: functional; parameters: scale not given: the % may be the effect or the level left
[26] = tested on: Escherichia coli; assay: Photodynamic inactivation of Escherichia coli ATCC 25922 assessed as reduction in intracellular double stranded DNA concentration at 5 uM preincubated for 10 mins followed by visible light irradiation for 90 mins by fluorimetric analysis relative to control; type: functional; parameters: scale not given: the % may be the effect or the level left
[27] = tested on: Staphylococcus warneri; assay: Drug uptake in Staphylococcus warneri at 0.5 uM incubated for 10 mins followed by compound washout by spectrofluorimetric analysis relative to control; type: ADME, organism-based; settings: in vivo
[28] = tested on: Escherichia coli; assay: Photodynamic inactivation of Escherichia coli ATCC 25922 assessed as reduction in intracellular double stranded DNA concentration at 5 uM preincubated for 10 mins followed by visible light irradiation for 15 mins by fluorimetric analysis relative to control; type: functional; parameters: scale not given: the % may be the effect or the level left
[29] = tested on: Escherichia coli; assay: Photodynamic inactivation of Escherichia coli ATCC 25922 assessed as reduction in cell survival at 5 uM preincubated for 10 mins followed by visible light irradiation for 60 mins; type: functional
[30] = tested on: Escherichia coli; assay: Photodynamic inactivation of Escherichia coli ATCC 25922 assessed as reduction in cell survival at 5 uM preincubated for 10 mins followed by visible light irradiation for 15 mins; type: functional
[31] = tested on: Escherichia coli; assay: Drug uptake in Escherichia coli ATCC 25922 at 5 uM incubated for 10 mins followed by compound washout by spectrofluorimetric analysis relative to control; type: ADME, organism-based; settings: in vivo
[32] = tested on: Staphylococcus warneri; assay: Photodynamic inactivation of Staphylococcus warneri assessed as reduction in cell survival at 0.5 uM preincubated for 10 mins followed by visible light irradiation for 20 mins; type: functional
[33] = tested on: Escherichia coli; assay: Photodynamic inactivation of Escherichia coli ATCC 25922 assessed as reduction in cell survival at 5 uM preincubated for 10 mins followed by visible light irradiation for 180 mins; type: functional
[34] = tested on: Staphylococcus warneri; assay: Photodynamic inactivation of Staphylococcus warneri assessed as reduction in intracellular double stranded DNA concentration at 0.5 uM preincubated for 10 mins followed by visible light irradiation for 20 mins by fluorimetric analysis relative to control; type: functional; parameters: scale not given: the % may be the effect or the level left
[35] = tested on: Staphylococcus warneri; assay: Photodynamic inactivation of Staphylococcus warneri assessed as reduction in intracellular double stranded DNA concentration at 0.5 uM preincubated for 10 mins followed by visible light irradiation for 5 mins by fluorimetric analysis relative to control; type: functional; parameters: scale not given: the % may be the effect or the level left
[36] = tested on: Escherichia coli; assay: Photodynamic inactivation of Escherichia coli ATCC 25922 assessed as reduction in cell survival at 5 uM preincubated for 10 mins followed by visible light irradiation for 270 mins; type: functional
[37] = tested on: Staphylococcus warneri; assay: Photodynamic inactivation of Staphylococcus warneri assessed as reduction in cell survival at 0.5 uM preincubated for 10 mins followed by visible light irradiation for 15 mins; type: functional
[38] = tested on: Staphylococcus warneri; assay: Photodynamic inactivation of Staphylococcus warneri assessed as reduction in cell survival at 0.5 uM preincubated for 10 mins followed by visible light irradiation for 10 mins; type: functional
[39] = tested on: Staphylococcus warneri; assay: Photodynamic inactivation of Staphylococcus warneri assessed as reduction in genomic DNA level at 0.5 uM preincubated for 10 mins followed by visible light irradiation for 5 to 15 mins by agarose gel electrophoresis; type: functional, organism-based
[40] = tested on: Staphylococcus warneri; assay: Photodynamic inactivation of Staphylococcus warneri assessed as reduction in intracellular double stranded DNA concentration at 0.5 uM preincubated for 10 mins followed by visible light irradiation by fluorimetric analysis; type: functional, organism-based; settings: TDE = time-dependent effect
[41] = tested on: Staphylococcus warneri; assay: Photodynamic inactivation of Staphylococcus warneri assessed as reduction in nucleic acid level at 0.5 uM preincubated for 10 mins followed by visible light irradiation for 20 to 40 mins by agarose gel electrophoresis; type: functional, organism-based
[42] = tested on: Escherichia coli; assay: Photodynamic inactivation of Escherichia coli ATCC 25922 assessed as reduction in degraded DNA and mRNA level at 5 uM preincubated for 10 mins followed by visible light irradiation for 30 mins by agarose gel electrophoresis; type: functional, organism-based

Structure (SMILES)	Activity [1]	Activity [2]	Activity [3]	Activity [4]	Activity [9] [%]	Drug uptake [10]	Activity [11] [%]	log10CFU/ml [12]	Activity [13] [%]	Activity [14] [%]	Activity [15] [%]	Activity [16] [%]	log10CFU/ml [17]	log10CFU/ml [18]	Activity [19] [%]	Activity [20] [%]	log10CFU/ml [21]	Activity [22] [%]	Drug uptake [23]	log10CFU/ml [24]	also measured
C[n+]1ccc(-c2c3nc(c(-c4cc[n+](C)cc4)c4ccc([nH]4)c(-c4cc[n+](C)cc4)c4ccc([nH]4)c(-c4cc[n+](C)cc4)c4nc2C=C4)C=C3)cc1	inactive	tde	inactive	Active	–	–	–	–	–	–	–	–	–	–	–	–	–	–	–	–	Activity [5]: Active; Activity [6]: inactive; Activity [7]: Active; Activity [8]: Active
C[n+]1ccc(-c2c3nc(c(-c4cc[n+](C)cc4)c4ccc([nH]4)c(-c4cc[n+](C)cc4)c4nc(c(-c5cc[n+](C)cc5)c5ccc2[nH]5)C=C4)C=C3)cc1.[I-].[I-].[I-].[I-]	–	–	–	–	99.8	Active	38.1	2.9	58.2	99.9	42.8	99.8	5.6	0.4	99.9	37.9	5.7	81.2	Active	4.7	Activity [25]: 45.3%; Activity [26]: 99.8%; Drug uptake [27]: 47%; Activity [28]: 14.3%; log10CFU/ml [29]: 4.4; log10CFU/ml [30]: 0.2; Drug uptake [31]: 35%; log10CFU/ml [32]: 3.3; log10CFU/ml [33]: 6.1; Activity [34]: 38.3%; Activity [35]: 19.6%; log10CFU/ml [36]: 6.2; log10CFU/ml [37]: 2.8; log10CFU/ml [38]: 1.8
C[n+]1ccc(-c2c3nc(c(-c4cc[n+](C)cc4)c4ccc([nH]4)c(-c4c(F)c(F)c(F)c(F)c4F)c4nc(c(-c5cc[n+](C)cc5)c5ccc2[nH]5)C=C4)C=C3)cc1.[I-].[I-].[I-]	Active	tde	Active	Active	99.1	Active	78	5.2	92.2	99.9	55.1	99.6	7.5	4.8	99.9	69.9	5.8	98.4	Active	7.2	Activity [39]: Active; Activity [40]: tde; Activity [41]: Active; Activity [42]: Active; Activity [25]: 91.9%; Activity [26]: 98.3%; Drug uptake [27]: 74%; Activity [28]: 23.1%; log10CFU/ml [29]: 5.4; log10CFU/ml [30]: 3.1; Drug uptake [31]: 47%; log10CFU/ml [32]: 6.9; log10CFU/ml [33]: 7.2; Activity [34]: 82.8%; Activity [35]: 66.2%; log10CFU/ml [36]: 7.7; log10CFU/ml [37]: 5.6; log10CFU/ml [38]: 5.3
